# Where two headings read alike, the source gives them in different places.
# Experiments:
# [1] = tested on: colon carcinoma HCT-116; assay: In vitro cytotoxicity, SRB assay, HCT-116; type: cell-based, human
# Excerpt: (§1) Human colon carcinoma HCT-116 cells and human prostate adenocarcinoma PC-3 cells were obtained from American Type Culture Collection (ATCC, Rockville, Md.). Human mammary carcinoma (MX-1) tumor cells were obtained from MSKCC cell bank. The CCRF-CEM human lymphoblastic leukemia cells and their vinblastine resistant subline (CCRF-CEM/VBL, 680-fold resistance in vitro) were obtained from Dr. William Beck of the University of Illinois, Chicago, and CCRF-CEM/Taxol (330-fold resistance in vitro). Resistant cells CCRF-CEM/taxol were produced by exposing the parent cells to increasing sublethal concentration (IC50-IC90) of paclitaxel for six months.
# (§2) In preparation for in vitro cytotoxicity assays, cells were cultured at an initial density 2−5×10^4 cells per milliliter. They were maintained in a 5% CO2-humidified atmosphere at 37° C. in RPMI medium 1640 (GIBCO/BRL) containing penicillin (100 units/mL), streptomycin (100 μg/mL, GIBCO/BRL), and 5% heat-inactivated FBS. For cells grown in suspension (such as CCRF-CEM and its sublines), cytotoxicity was measured, by using XTT microculture method^23 in 96-well microtiter plates.
# (§3) The cytotoxic effects of the newly synthesized compounds were determined in T-cell acute lymphocytic leukemia (CCRF-CEM) and their resistant subcell lines (CCRF-CEM/Taxol and CCRF-CEM/VBL) by the XTT assay^24 and human solid tumor cells (i.e. breast carcinoma MX-1 and colon carcinoma HCT-116) by the SRB assay^25 in a 72 h incubation using a microplate spectrophotometer as described previously.^25 After the addition of phenazine methosulfate-XTT solution, incubated at 37° C. for 6 h and absorbance at 450 and 630 nm was detected on a microplate reader (EL 340). The cytotoxicity of the newly synthesized compounds against non-small cell lung carcinoma H1299, prostate cancer PC3, oral cancer OECM-1 and glioma U87 were determined by the Alamar blue assay^26 in a 72 h incubation using a microplate spectrophotometer as described previously. After the addition of alamar blue solution, it was incubated at 37° C. for 6 h. Absorbance at 570 and 600 nm was detected on a microplate reader. IC50 values were determined from dose-effect relationship at six or seven concentrations of each drug using the CompuSyn software by Chou and Martin^27 based on the median-effect principle and plot.^28,29 Ranges given for Cisplatin were mean±SE (n=4).
# [2] = tested on: non-small cell lung carcinoma H1299; assay: In vitro cytotoxicity, Alamar blue assay, H1299; type: cell-based, human
# Experimental: (§4) Prostate cancer PC3, non-small cell lung carcinoma cells H1299, and human glioma cells U87 were purchased from the American Type Culture Collection (Rockville, Md.). OECM-1 (human gingival squamous cell carcinoma cells) was obtained from Dr C.-L. Meng (National Defense Medical College, Taiwan).^22
# as §2, §3
# [3] = tested on: human lymphoblastic leukemia (CCRF-CEM); assay: In vitro cytotoxicity, XTT assay, CCRF-CEM; type: cell-based
# Excerpt: as §1, §2, §3
# [4] = tested on: CCRF-CEM/Taxol; assay: In vitro cytotoxicity, XTT assay, CCRF-CEM/Taxol; type: cell-based, human; settings: Table 5; for IC50: Taxol-resistant subline, XTT, 72 h, read-out: Cell Growth inhibition (IC50 μM) CCRF-CEM/Taxol; for fold of cross-resistant vs IC50 of the parent cell line, CCRF-CEM/Taxol: number in brackets
# Excerpt: as §1, §2, §3
# [5] = tested on: breast carcinoma MX-1; assay: In vitro cytotoxicity, SRB assay, MX-1; type: cell-based, human
# Excerpt: as §1, §2, §3
# [6] = tested on: linearized pBR322DNA; assay: DNA cross-linking, alkaline agarose gel shift assay; type: biochemical; settings: 1, 10, and 20 μM; FIG. 8
# Experimental: Formation of DNA cross-linking was analyzed by alkaline agarose gel electrophoresis assay. […] The reaction mixture was incubated at 37° C. for 2 h. At the end of reaction, the plasmid DNA was linearized by digestion with BamHI and followed by precipitation with ethanol. The DNA pellets were dissolved and denatured in alkaline buffer (0.5 N NaOH-10 mM EDTA). An aliquot of 20 μL of DNA solution (1000 ng) was mixed with 4 μL of 6× alkaline loading dye and then electrophoretically resolved on a 0.8% alkaline agarose gel with NaOH-EDTA buffer at 4° C. The electrophoresis was carried out at 18 V for 22 h. After staining the gels with an ethidium bromide solution, the DNA was then visualized under UV light.
# [7] = tested on: prostate cancer PC3; assay: In vitro cytotoxicity, Alamar blue assay, PC3; type: cell-based, human; settings: Table 6, 72 h
# Experimental: as §4, §2, §3
# [8] = tested on: oral cancer OECM-1; assay: In vitro cytotoxicity, Alamar blue assay, OECM-1; type: cell-based, human
# Experimental: as §4, §2, §3
# [9] = tested on: CCRF-CEM/VBL; assay: In vitro cytotoxicity, XTT assay, CCRF-CEM/VBL; type: cell-based, human; settings: Table 5; for IC50: vinblastine-resistant subline, XTT, 72 h, read-out: Cell Growth inhibition (IC50 μM) CCRF-CEM/VBL; for fold of cross-resistant vs IC50 of the parent cell line, CCRF-CEM/VBL: number in brackets
# Excerpt: as §1, §2, §3
# [10] = tested on: glioma U87; assay: In vitro cytotoxicity, Alamar blue assay, U87; type: cell-based, human
# Experimental: as §4, §2, §3
# [11] = Homo sapiens, NCI-H1299, Table 6, 72 h
# [12] = Homo sapiens, CCRF-CEM, Table 5, 72 h incubation, read-out: Cell Growth inhibition (IC50 μM) CCRF-CEM
# [13] = Homo sapiens, OECM1, Table 6, 72 h
# [14] = Table 5, 72 h incubation, read-out: Cell Growth inhibition (IC50 μM) CCRF-CEM
# [15] = Homo sapiens, HCT-116, Table 7, 72 h
# [16] = Homo sapiens, CCRF-CEM, Table 7, 72 h, read-out: IC50 (μM) CCRF/CEM
compound,measurement,setting,value
"OCc1c(CO)c2sc3ccccc3n2c1-c1ccc(Cl)cc1 [Compound 18c, (1-(4-Chlorophenyl)benzo[d]pyrrolo[2,1-b]thiazole-2,3-diyl)dimethanol]",IC50,"[1]; Homo sapiens, HCT-116, Table 6, 72 h",9.26 ± 0.049 µM
same,IC50,[2]; [11],12.4 ± 0.44 µM
same,IC50,[3]; [12],2.61 ± 0.03 µM
same,IC50,"[4]; Homo sapiens, CCRF-CEM",5.22 ± 0.026 µM
same,"fold of cross-resistant vs IC50 of the parent cell line, CCRF-CEM/Taxol",[4],2.00 ×
same,IC50,"[5]; Homo sapiens, Table 6, 72 h",10.4 ± 0.003 µM
same,DNA interstrand cross-linking,[6],able to bind covalently (interstrand cross-linking) with DNA
same,IC50,[7]; Homo sapiens,20.4 ± 3.43 µM
same,IC50,[8]; [13],14.6 ± 1.13 µM
same,IC50,"[9]; Homo sapiens, CCRF-CEM",4.09 ± 0.025 µM
same,"fold of cross-resistant vs IC50 of the parent cell line, CCRF-CEM/VBL",[9],1.56 ×
same,IC50,"[10]; Homo sapiens, Table 6, 72 h",20.7 ± 2.26 µM
"OCc1c(CO)c2sc3ccccc3n2c1-c1ccc(Cl)c(Cl)c1 [Compound 18e, (1-(3,4-Dichlorophenyl)benzo[d]pyrrolo[2,1-b]thiazole-2,3-diyl)dimethanol]",melting point,,159 to 160 °C
"OCc1c(CO)c2sc3ccccc3n2c1-c1ccc(F)c(Cl)c1 [Compound 18f, (1-(3-Chloro-4-fluorophenyl)benzo[d]pyrrolo[2,1-b]thiazole-2,3-diyl)dimethanol]",melting point,,178 to 179 °C
"COc1ccc(-c2c(CO)c(CO)c3sc4ccccc4n23)cc1 [Compound 18g, (1-(4-Methoxyphenyl)benzo[d]pyrrolo[2,1-b]thiazole-2,3-diyl)dimethanol]",IC50,[2]; [11],9.94 ± 1.87 µM
same,IC50,[3]; [12],1.13 ± 0.09 µM
same,IC50,"[4]; Homo sapiens, CCRF-CEM",2.17 ± 0.02 µM
same,"fold of cross-resistant vs IC50 of the parent cell line, CCRF-CEM/Taxol",[4],1.9 ×
same,DNA interstrand cross-linking,[6],able to bind covalently (interstrand cross-linking) with DNA
same,IC50,[7]; Homo sapiens,8.81 ± 1.2 µM
same,IC50,[8]; [13],5 ± 0.78 µM
same,IC50,"[9]; Homo sapiens, CCRF-CEM",2.63 ± 0.031 µM
same,"fold of cross-resistant vs IC50 of the parent cell line, CCRF-CEM/VBL",[9],2.30 ×
same,IC50,"[10]; Homo sapiens, Table 6, 72 h",18.1 ± 3.71 µM
"COc1ccc(-c2c(CO)c(CO)c3sc4ccccc4n23)cc1OC [Compound 18h, (1-(3,4-Dimethoxyphenyl)benzo[d]pyrrolo[2,1-b]thiazole-2,3-diyl)dimethanol]",melting point,,215 to 216 °C
"COc1cc(-c2c(CO)c(CO)c3sc4ccccc4n23)cc(OC)c1OC [Compound 18i, (1-(3,4,5-Trimethoxyphenyl)benzo[d]pyrrolo[2,1-b]thiazole-2,3-diyl)dimethanol]",melting point,,160 to 161 °C
"CCNC(=O)OCc1c(COC(=O)NCC)c2sc3ccccc3n2c1-c1ccc(OC)cc1 [Compound 19g, (1-(4-Methoxyphenyl)benzo[d]pyrrolo[2,1-b]thiazole-2,3-diyl)bis(methylene)bis(ethylcarbamate)]",IC50,"[2]; Table 6, 72 h",8.85 ± 1.53 µM
same,IC50,[3]; [14],0.19 ± 0.002 µM
same,IC50,[4],0.37 ± 0.001 µM
same,"fold of cross-resistant vs IC50 of the parent cell line, CCRF-CEM/Taxol",[4],1.90 ×
same,DNA interstrand cross-linking,[6],able to bind covalently (interstrand cross-linking) with DNA
same,IC50,[7],17.9 ± 3.59 µM
same,IC50,"[8]; Table 6, 72 h",9.39 ± 1.9 µM
same,"fold of cross-resistant vs IC50 of the parent cell line, CCRF-CEM/VBL",[9],2.20 ×
same,IC50,[9],0.42 ± 0.003 µM
same,IC50,"[10]; Table 6, 72 h",29.5 ± 4.86 µM
"CC(C)NC(=O)OCc1c(COC(=O)NC(C)C)c2sc3ccccc3n2c1-c1ccc(F)c(F)c1 [Compound 20d, (1-(3,4-Difluorophenyl)benzo[d]pyrrolo[2,1-b]thiazole-2,3-diyl)bis(methylene)bis(iso-propylcarbamate)]",IC50,"[1]; Table 6, 72 h",0.41 ± 0.005 µM
same,IC50,"[2]; Table 6, 72 h",30.8 ± 6.92 µM
same,IC50,[3]; [14],0.33 ± 0.001 µM
same,IC50,[4],0.19 ± 0.004 µM
same,"fold of cross-resistant vs IC50 of the parent cell line, CCRF-CEM/Taxol",[4],0.57 ×
same,IC50,"[5]; Table 6, 72 h",1 ± 0.002 µM
same,IC50,[7],29.6 ± 1.83 µM
same,IC50,"[8]; Table 6, 72 h",15.1 ± 1.34 µM
same,"fold of cross-resistant vs IC50 of the parent cell line, CCRF-CEM/VBL",[9],0.90 ×
same,IC50,[9],0.3 ± 0.001 µM
same,IC50,"[10]; Table 6, 72 h",74.9 ± 15.7 µM
"COc1ccc(-c2c(COC(=O)NC(C)C)c(COC(=O)NC(C)C)c3sc4ccccc4n23)cc1 [Compound 20g, (1-(4-Methoxyphenyl)benzo[d]pyrrolo[2,1-b]thiazole-2,3-diyl)bis(methylene)bis(iso-propylcarbamate)]",IC50,"[2]; Table 6, 72 h",8.19 ± 1.74 µM
same,IC50,[3]; [14],0.14 ± 0.002 µM
same,IC50,[4],0.17 ± 0.004 µM
same,"fold of cross-resistant vs IC50 of the parent cell line, CCRF-CEM/Taxol",[4],1.17 ×
same,DNA interstrand cross-linking,[6],able to bind covalently (interstrand cross-linking) with DNA
same,IC50,[7],17.5 ± 0.8 µM
same,IC50,"[8]; Table 6, 72 h",7.23 ± 1.57 µM
same,"fold of cross-resistant vs IC50 of the parent cell line, CCRF-CEM/VBL",[9],1.47 ×
same,IC50,[9],0.25 ± 0.008 µM
same,IC50,"[10]; Table 6, 72 h",60.9 ± 13.4 µM
"Cn1c2c(c3ccccc31)Cc1c(CO)c(CO)c(-c3ccccc3)n1C2 [Compound 26b, (3-(phenyl)-6-methyl-6,11-dihydro-5H-indolizino[6,7-b]indole-1,2-diyl)dimethanol]",melting point,,122 to 123 °C
"Cn1c2c(c3ccccc31)Cc1c(CO)c(CO)c(-c3ccc(F)cc3)n1C2 [Compound 26c, (3-(4-Fluorophenyl)-6-methyl-6,11-dihydro-5H-indolizino[6,7-b]indole-1,2-diyl)dimethanol]",melting point,,240 to 241 °C
"Cn1c2c(c3ccccc31)Cc1c(CO)c(CO)c(-c3ccc(Cl)cc3)n1C2 [Compound 26d, (3-(4-Chlorophenyl)-6-methyl-6,11-dihydro-5H-indolizino[6,7-b]indole-1,2-diyl)-dimethanol]",IC50,[1]; [15],13.49 ± 0.088 µM
same,melting point,,238 to 239 °C
same,IC50,[3]; [16],4.58 ± 0.378 µM
same,IC50,"[5]; Homo sapiens, Table 7, 72 h",11.3 ± 0.42 µM
"Cn1c2c(c3ccccc31)Cc1c(CO)c(CO)c(-c3ccc(F)c(F)c3)n1C2 [Compound 26e, (3-(3,4-Difluorophenyl)-6-methyl-6,11-dihydro-5H-indolizino[6,7-b]indole-1,2-diyl)dimethanol]",melting point,,195 to 196 °C
"Cc1c(CO)c(CO)c2n1Cc1c(c3ccccc3n1C)C2 [Compound 33a, [3,6-Dimethyl-6,11-dihydro-5H-indolizino[6,7-b]indole-1,2-diyl]dimethanol]",IC50,[1]; [15],0.12 ± 0.001 µM
same,IC50,"[2]; Homo sapiens, NCI-H1299, Table 7, 72 h",3.96 ± 1.79 µM
same,melting point,,200 to 201 °C
same,IC50,[3]; [16],0.042 ± 0.0003 µM
same,IC50,"[5]; Homo sapiens, Table 7, 72 h",0.22 ± 0.019 µM
same,IC50,"[10]; Homo sapiens, Table 7, 72 h",6.54 ± 2.16 µM
